From PMC5660723, “Histone Deacetylase Inhibitors Are Protective in Acute but Not in Chronic Models of Ototoxicity” (Frontiers in Cellular Neuroscience, 2017)

How the values were obtained:
[1] = tested on: outer hair cells (OHCs) of p3 murine organ of Corti explants; test: Protection against gentamicin-induced OHC loss in murine organ of Corti explants; format: cell-based, CBA/J mice; conditions: 4.5 μM GM
From the text: The culture procedures have been described in detail (Chen et al., [2009]). In brief, postnatal day 3 (p3) CBA/J pups were euthanized after antisepsis using 70% ethanol. Inner ears were extracted from surrounding tissue and immersed in cold Hank’s balanced salt solution. The lateral wall tissues (stria vascularis and spiral ligament) and the auditory nerve bundle were micro-dissected from the organ of Corti. The explants were placed onto a prepared culture dish containing a 15-μL polymerized drop of rat tail collagen in 1 mL of culture medium consisting of Basal Medium Eagle, 1% serum-free supplement (Invitrogen, Carlsbad, CA, USA), 1% bovine serum albumin, 5 mg/mL glucose, and 10 U/mL penicillin G. After 4 h of incubation (37°C, 5% CO2), an additional 1 mL of medium was added to submerge the explants.
The medium was then exchanged for new medium containing a final concentration of 4.5 μM GM with or without various concentrations of the HDAC inhibitors and incubated for 72 h. The stock solutions with 95 mM of SAHA/vorinostat (Cayman Chemical, Ann Arbor, MI, USA), 100 mM of belinostat (Selleckchem, Houson, TX, USA), and 100 mM of panobinostat (Cayman Chemical), were dissolved in 100% dimethyl sulfoxide (DMSO) and stored at −20°C. GM solution was made fresh from powder in culture medium at 0.2 mM and then diluted to the final concentration for each experiment.
Explants were fixed with 4% paraformaldehyde overnight at 4°C and permeabilized for 30 min with 3% Triton X-100 in phosphate-buffered saline (PBS) at room temperature (22–24°C). The specimens were then washed three times with PBS and incubated with rhodamine-phalloidin (Invitrogen) at a 1:100 dilution for 60 min at room temperature (22–24°C). After rinsing in PBS, the specimens were mounted on a slide with Gel-Mount™ (BioMeda Corp., Foster City, CA, USA). The phalloidin-stained stereociliary bundles and circumferential F-actin rings on the cuticular plate of OHCs allowed the determination of cells that were present or missing. A clear “V” shape of stereocilia indicates the presence of OHCs. If the “V” shape is not visualized, we accept this as a damaged hair cells. Cell populations were assessed on a Leitz Orthoplan upright microscope equipped for epifluorescence, using a 50× oil-immersion objective. […] Each successive 0.19-mm field was evaluated for the absence of OHCs beginning from the apex and moving down the organ of Corti to the base. The percentage of OHC loss was calculated.
After having established the safe concentration range for the HDAC inhibitors, we explored their efficacy as protective agents against GM-induced OHC loss. […] From the assessment of safe doses and the median effective (protective) doses (ED50) of the three HDAC inhibitors, we calculated the therapeutic index (TI = TD50/ED50) to be highest (safest) for belinostat and lowest for panobinostat (for detailed values see Table 2).

[2] = Guinea pig tolerability, serum platelet, BUN and creatinine levels; format: in vivo, guinea pigs; conditions: for BUN / Cr: in mg/dL (unit assumed)
Experimental: Pigmented male guinea pigs initially weighing 200–250 g from Charles River were used in the in-vivo study. Experiments were begun 1 week after the guinea pigs arrived. To select safe doses of SAHA for protective studies, we conducted two separate sets of experiments to assess serum platelet concentrations. In the first set, pigmented guinea pigs received daily IP injections of SAHA at lower doses (LD; 2 mg/kg and 5 mg/kg) concurrent with SQ injections of 120 mg GM base/kg body weight daily for 2 weeks. In the second study, the higher doses (HD) of SAHA (15 mg/kg and 25 mg/kg) were used. The DMSO concentration was 1.1 g/kg, equal to the DMSO concentration used for the 25 mg/kg concentration of SAHA. […] We then tested the protective ability of SAHA at LD (2 mg/kg and 5 mg/kg) and at HD of SAHA (15 mg/kg and 25 mg/kg) against GM-induced hearing loss concurrent with daily SQ injections of GM (dissolved in saline) at 120 mg base/kg for 14 days. SAHA was dissolved in 100% DMSO for stock solutions of 25 mg/mL and diluted with saline immediately before IP injections. All compound solutions were filtered with syringe filters before injection. Body weights were measured before each injection. If a guinea pig lost ~5% of its body weight, an additional 3–4 mL of saline was administrated subcutaneously.
Blood was obtained by nail clipping after light anesthesia of the guinea pigs by metofane inhalation after the last drug injections. Blood cells were separated by centrifugation at 1000× g for 15 min, and sera were stored at −20°C. Blood urea nitrogen (BUN), creatinine and platelet concentrations were determined using a Kodak Ektachem700XR Clinical Chemistry Analyzer (Clinical Products Division, Eastman Kodak, Rochester, NY, USA) and analyzed by Dr. Donald Giacherio, Chemical Pathology Laboratory, University of Michigan.
While the CBA/J mouse is a well-established model for chronic KM-induced ototoxicity, we wished to ascertain whether the lack of protection by SAHA might be species-dependent. We therefore tested if SAHA treatment had protective effects against GM-induced hearing loss in guinea pigs. To find safe doses to be used in guinea pigs in vivo, we first assessed serum platelet concentrations. Guinea pigs tolerated injections of SAHA at all concentrations of 5–25 mg/kg body weight concurrent with SQ injections of 120 mg GM base/kg body weight daily for 2 weeks with normal appearing fur and steadily increasing body weight. Blood samples were collected after the last injection.

pigmented guinea pigs = test: Gentamicin-induced ototoxicity in guinea pigs in vivo (ABR threshold shifts, OHC counts), chronic model; conditions: for effect on GM-induced auditory threshold shifts: SAHA IP LD 2–5 mg/kg or HD 15–25 mg/kg with GM 120 mg base/kg daily for 2 weeks
Experimental: Pigmented male guinea pigs initially weighing 200–250 g from Charles River were used in the in-vivo study. Experiments were begun 1 week after the guinea pigs arrived. To select safe doses of SAHA for protective studies, we conducted two separate sets of experiments to assess serum platelet concentrations. […] In the second study, the higher doses (HD) of SAHA (15 mg/kg and 25 mg/kg) were used. The DMSO concentration was 1.1 g/kg, equal to the DMSO concentration used for the 25 mg/kg concentration of SAHA. […] SAHA was dissolved in 100% DMSO for stock solutions of 25 mg/mL and diluted with saline immediately before IP injections. All compound solutions were filtered with syringe filters before injection. Body weights were measured before each injection. If a guinea pig lost ~5% of its body weight, an additional 3–4 mL of saline was administrated subcutaneously.
The procedures for surface preparations of guinea pig cochlear epithelia were followed as previously described (Sha and Schacht, [1999b]). After the last auditory brain stem response (ABR) measurement, guinea pigs from the second group of experiments were deeply anesthetized in a CO2 chamber and decapitated. Cochleae were immediately removed and perfused with 4% paraformaldehyde in PBS at pH 7.4 and fixed overnight at 4°C. Micro-dissected surface preparations of the organ of Corti were permeabilized for 30 min with 0.5% Triton X-100 in PBS at room temperature (22–24°C) and stained with rhodamine phalloidin (Invitrogen) at a 1:100 dilution for 60 min at room temperature (22–24°C). After rinsing in PBS, the specimens were mounted on a slide with Gel-Mount™ (BioMeda Corp.). OHC counts were conducted with microscopy as described above for mice.
ABRs were measured 3 days before and 3 weeks after drug treatments. Animals were anesthetized with IP injections of ketamine (100 mg/kg) and xylazine (10 mg/kg) for mice or ketamine (58.8 mg/kg), xylazine (2.4 mg/kg), and acepromazine (1.2 mg/kg) for guinea pigs. Body temperature was maintained near 37°C with a heating pad. ABRs were measured at 12 and 32 kHz for guinea pigs or 8, 16, and 32 kHz for mice in a sound-isolated and electrically shielded booth (Acoustic Systems, Austin, TX, USA). Sub-dermal electrodes were inserted at the vertex of the skull, under the left ear and under the right ear (ground). […] Thresholds (the lowest stimulus level with a reproducible response) were determined by reducing the intensity in 10-dB steps and then in 5-dB steps approaching the threshold until no organized response was detected. Thresholds were evaluated based on ABR wave I. Scores were given by an expert blinded to experimental conditions between the highest stimulus level without a response and the lowest stimulus level where an organized response was observed. […]

mice [3] = conditions: systemic SAHA, cited from earlier work
mice [4] = tested on: mice; set-up: method as in Layman et al., 2015; conditions: 100 mg/kg/day for 2 weeks, ref Layman et al., 2015; cited from earlier work
[5] = cited from earlier work
[6] = GM + SAHA (HD: 15–25 mg/kg), n=5
[7] = SAHA alone (LD + HD; LD 2–5 mg/kg, HD 15–25 mg/kg), n=2

O=C(CCCCCCC(=O)Nc1ccccc1)NO [SAHA, vorinostat]
concentration at which protection from GM-induced OHC loss begins ([1]; 72 h): 0.5 µM
concentration that completely prevents GM-induced OHC loss ([1]; 72 h): 2 µM
ED50 (median effective protective dose) ([1]; 72 h co-incubation, p3 murine explants): 600 nM
BUN [2, 6]: 17 ± 3.2
Cr [2, 6]: 0.4 ± 0.08
BUN ([2]; GM + SAHA (LD: 2–5 mg/kg), n=6): 17 ± 1.7
Cr ([2]; GM + SAHA (LD: 2–5 mg/kg), n=6): 0.4 ± 0.06
platelet concentration compared to GM alone ([2]; SAHA 25 mg/kg IP daily with 120 mg GM base/kg SQ for 2 weeks): significantly lower
tolerability (fur appearance, body weight) ([2]; SAHA 5–25 mg/kg with 120 mg GM base/kg SQ daily for 2 weeks): tolerated
BUN [2, 7]: 17.5 ± 0.7
Cr [2, 7]: 0.5 ± 0.007
effect on GM-induced auditory threshold shifts (pigmented guinea pigs; 12 kHz): did not attenuate
effect on GM-induced auditory threshold shifts (pigmented guinea pigs; 32 kHz): did not attenuate
effect on GM-induced loss of OHCs (pigmented guinea pigs; SAHA IP with GM 120 mg base/kg daily for 2 weeks): did not attenuate
effect on trauma of exposure to excessive noise (mice [3]; ref Chen et al., 2016): attenuated
effect on acute effects of the ototoxic combination of KM and furosemide (mice [3]; ref Layman et al., 2015): attenuated
ototoxicity (mice [4]): no ototoxicity
blood-brain barrier penetration ([5]; mouse model of Huntington’s disease, ref Hockly et al., 2003): crosses the blood-brain barrier
blood-labyrinth barrier / inner ear penetration ([5]; mouse, IP injection, ref Layman et al., 2015): crosses the blood-labyrinth barrier
